Measurements: US9895352B2, “Indolinone compounds and uses thereof” (Oncternal Therapeutics, Inc., priority 2014, dated 2018)
Values joined by “and” are separate entries in the source; they are usually repeats but may differ in a detail not shown here. Equal entries are not always repeated. Where two headings read alike, the source gives them in different places.

Columns and labels:
[1] = tested on: MDA-MB-231; experiment: CCK-8 tetrazolium tumor cell growth inhibition, MDA-MB-231; type: cell-based; details: Homo sapiens; MDA-MB-231, Breast, increased ETV1
Description: (§1) A modified tetrazolium salt assay using the CCK-8 kit (Sigma-Aldrich; St Louis, Mo.) was used to measure the inhibition of human tumor cell growth. Tumor cells (5000-7500 per well) were added to 96 well plates and allowed to attach for 4-5 hours. Compounds were serially diluted and added in triplicate at a concentration of 0.02 to 5 μM. DMSO was included as a vehicle control. Cells were incubated in the presence of compound for 3 days. After incubation CCK-8 reagent was added to each well and incubated for 2-4 hours. Viable cells were quantitated spectrophotometrically at a wavelength of 450 nm. Percent viability of each sample was calculated from the A450 values as follows: % viability=(A450 nm sample/A450 nm DMSO-treated cells×100). […] IC50 activities of particular compounds were determined using SKES cells (Ewing Sarcoma cell line).

[2] = tested on: SKES cells (Ewing Sarcoma cell line); experiment: CCK-8 tetrazolium tumor cell growth inhibition, SKES; type: cell-based; details: Homo sapiens
Description: as §1

[3] = mouse liver microsome, no cofactor, 60 min
[4] = dog liver microsome, no cofactor, 60 min
[5] = tested on: A4573 tumor cells; experiment: similar rat xenograft study; type: in vivo; details: compared to the vehicle control
[6] = tested on: LNCap; experiment: CCK-8 tetrazolium tumor cell growth inhibition, LNCap; type: cell-based; details: Homo sapiens, Prostate, rearranged ETV1
Description: as §1

[7] = human liver microsome, no cofactor, 60 min
[8] = in vitro; details: rat, microsomes
[9] = in vitro; details: dog, microsomes
[10] = tested on: PC3; experiment: CCK-8 tetrazolium tumor cell growth inhibition, PC3; type: cell-based; details: Homo sapiens, PC-3; PC3, Prostate, no ETS rearrangement
Description: as §1

[11] = tested on: A4573 tumor cells; experiment: A4573 xenograft study in mice; type: in vivo; details: A4573 tumors, relative to vehicle control
[12] = tested on: TC71; experiment: CCK-8 tetrazolium tumor cell growth inhibition, TC71; type: cell-based; details: Homo sapiens, TC-71; TC71, ES, EWS-FLI1 Type 1
Description: as §1

[13] = Pharmacokinetics after IV and oral administration; type: in vivo; details: BALB/c mice or Sprague Dawley rats; for Cmax / Tmax / bioavailability / half-life: plasma; for Tmax: read-out: Tmax
Description: (§2) Certain pharmacokinetics parameters were determined for certain compounds in vivo for intravenous and oral administration. Briefly, compounds were formulated and administered using IV bolus, continuous IV infusion or oral administration. Blood was collected at multiple time points over 24 hours and processed into plasma. Plasma was analyses for parent using LC/MS/MS. Certain parameters for certain compounds were obtained in duplicate.

[14] = tested on: MCF7; experiment: CCK-8 tetrazolium tumor cell growth inhibition, MCF7; type: cell-based; details: Homo sapiens; MCF7, Breast, no ETS rearrangement
Description: as §1

[15] = tested on: BxPC3; experiment: CCK-8 tetrazolium tumor cell growth inhibition, BxPC3; type: cell-based; details: Homo sapiens, BXPC-3; BxPC3, Pancreas, increased FLI1
Description: as §1

[16] = rat liver microsome, no cofactor, 60 min
[17] = tested on: PANC1; experiment: CCK-8 tetrazolium tumor cell growth inhibition, PANC1; type: cell-based; details: Homo sapiens, PANC-1; PANC1, Pancreas, no ETS rearrangement
Description: as §1

[18] = tested on: A4573; experiment: CCK-8 tetrazolium tumor cell growth inhibition, A4573; type: cell-based; details: Homo sapiens; A4573, ES, EWS-FLI1 Type 3
Description: as §1

[19] = Half-life in dog hepatocytes; type: in vitro ADME; details: read-out: Half life of cmpds
Description: (§3) In another study, metabolism of compounds in hepatocytes from various species was examined. Hepatocytes were contacted with a compound, and the half-life of the compound was determined.

[20] = Pharmacokinetics, continuous infusion study in dog; type: in vivo; details: for Vd / clearance / half-life: plasma, iv
Description: as §2

[21] = Half-life in mouse hepatocytes; type: in vitro ADME; details: read-out: Half life of cmpds
Description: as §3

[22] = Half-life in human hepatocytes; type: in vitro ADME; details: read-out: Half life of cmpds
Description: as §3

[23] = Half-life in rat hepatocytes; type: in vitro ADME; details: read-out: Half life of cmpds
Description: as §3

[24] = Pharmacokinetics, continuous infusion study in rat; type: in vivo; details: for Vd / clearance / half-life: plasma, iv
Description: as §2

[25] = in vitro; details: mouse, microsomes
[26] = 20 mg/kg po, labrasol/tetraglycol 9:1
[27] = 20 mg/kg po, labrasol:tetraglycol:water 72:8:20
[28] = iv, 5 mg/kg, 5 mg/kg IV, captisol
[29] = po, 20 mg/kg, 20 mg/kg po, labrasol/tetraglycol 9:1
[30] = po, 20 mg/kg, 20 mg/kg po, labrasol:tetraglycol:water 72:8:20
[31] = iv, 10 mg/kg, 10 mg/kg IV, captisol
[32] = po, 25 mg/kg, 25 mg/kg po, labrasol:tetraglycol:water 72:8:20
[33] = po, 100 mg/kg, 100 mg/kg po, PEG-400/tween
[34] = po, 100 mg/kg, 100 mg/kg po, labrasol/tetraglycol

COc1ccc(C(=O)CC2(O)C(=O)Nc3c(Cl)ccc(Cl)c32)cc1 (single isomer, unassigned) [Cmpd 2, 4,7-Dichloro-3-hydroxy-3-[2-(4-methoxyphenyl-2-oxoethyl)]-1,3-dihydroindol-2-one]
IC50 [1]: < 5 µM
IC50 ([2]; 72 h, SKES cells, 3 days with compound, CCK-8 (TABLE 3)): < 5 µM
IC50 ([2]; SKES, ES, EWS-FLI1 Type 2): < 5 µM
Remaining (NCF = 60 min) [3]: 90.2%
Remaining (NCF = 60 min) [4]: 100.6%
tumor growth inhibition (TGI) [5]: 87%
IC50 [6]: < 5 µM
Remaining (NCF = 60 min) [7]: 112.1%
half-life [8]: 3.8 min
half-life [9]: 30.3 min
IC50 [10]: > 5 µM
tumor growth inhibition (TGI) ([11]; 200 mg/kg bid oral): did not show TGI
IC50 [12]: < 5 µM
AUC ([13]; 5 mg/kg IV, captisol): 1991 h * (ng/mL)
% F [13, 26]: 49%
AUC [13, 26]: 3896 h * (ng/mL) and 3890 h * (ng/mL)
% F [13, 27]: 57%
AUC [13, 27]: 4574 h * (ng/mL)
Cmax [13, 28]: 9380 ng/mL
Tmax [13, 28]: 0.033 h
Cmax [13, 29]: 2240 ng/mL
bioavailability [13, 29]: 40%
half-life [13, 29]: 96 min
Tmax [13, 29]: 1 h
Cmax [13, 30]: 2840 ng/mL
bioavailability [13, 30]: 47%
half-life [13, 30]: 90 min
Tmax [13, 30]: 1 h
IC50 [14]: > 5 µM
IC50 [15]: < 5 µM
Remaining (NCF = 60 min) [16]: 92.7%
IC50 [17]: > 5 µM
IC50 [18]: < 5 µM

O=C(CC1(O)C(=O)Nc2c(Cl)ccc(Cl)c21)c1ccc(C2CC2)cc1 (single isomer, unassigned) [Cmpd 14, 4,7-Dichloro-3-(2-(4-cyclopropylphenyl)-2-oxoethyl)-3-hydroxyindolin-2-one]
IC50 [1]: < 5 µM
Remaining (NCF = 60 min) [3]: 102.0%
Remaining (NCF = 60 min) [4]: 97.1%
tumor growth inhibition (TGI) [5]: 53%
IC50 [6]: < 5 µM
half-life [19]: 20.3 min
Remaining (NCF = 60 min) [7]: 104.5%
half-life [8]: 2.8 min
Css(3-24 h) ([20]; 10 mg/kg/day): 210 ng/mL and 0.56 μM
MRT24-inf ([20]; 10 mg/kg/day): 2.5 h
Css(3-24 h) ([20]; 25 mg/kg/day): 466 ng/mL and 1.24 μM
MRT24-inf ([20]; 25 mg/kg/day): 2.2 h
Vd ([20]; 10 mg/kg/day): 5.64 L/kg
clearance ([20]; 10 mg/kg/day): 33.6 mL/min/kg
half-life ([20]; 10 mg/kg/day): 114 min
Vd ([20]; 25 mg/kg/day): 5.66 L/kg
clearance ([20]; 25 mg/kg/day): 37.3 mL/min/kg
half-life ([20]; 25 mg/kg/day): 102 min
IC50 [10]: > 5 µM
tumor growth inhibition (TGI) ([11]; 100 mg/kg bid oral): 57%
half-life [21]: 62.8 min
half-life [22]: 75.9 min
half-life [23]: 27.4 min
Css(3-24 h) ([24]; 24 mg/kg/day): 344 ng/mL and 0.91 μM
MRT24-inf ([24]; 24 mg/kg/day): 1.11 h
Css(3-24 h) ([24]; 96 mg/kg/day): 1376 ng/mL and 3.7 μM
MRT24-inf ([24]; 96 mg/kg/day): 1.73 h
Vd ([24]; 24 mg/kg/day): 3.46 L/kg
clearance ([24]; 24 mg/kg/day): 48.7 mL/min/kg
half-life ([24]; 24 mg/kg/day): 49.4 min
Vd ([24]; 96 mg/kg/day): 4.23 L/kg
clearance ([24]; 96 mg/kg/day): 49.6 mL/min/kg
half-life ([24]; 96 mg/kg/day): 60 min
IC50 [12]: < 5 µM
AUC ([13]; 5 mg/kg IV, captisol): 4131 h * (ng/mL)
AUC ([13]; 10 mg/kg IV, captisol): 6059 h * (ng/mL)
AUC ([13]; 25 mg/kg po, labrasol:tetraglycol:water 72:8:20): 13152 h * (ng/mL)
AUC ([13]; 100 mg/kg po, PEG-400/tween): 92219 h * (ng/mL)
AUC ([13]; 100 mg/kg po, labrasol/tetraglycol): 146167 h * (ng/mL)
Cmax [13, 28]: 10900 ng/mL
half-life [13, 28]: 48 min
Tmax [13, 28]: 0.03 h
Cmax [13, 31]: 39800 ng/mL
half-life [13, 31]: 85.8 min
Tmax [13, 31]: 0.03 h
Cmax [13, 32]: 2770 ng/mL
bioavailability [13, 32]: 64%
half-life [13, 32]: 186 min
Tmax [13, 32]: 1 h
Cmax [13, 33]: 26000 ng/mL
bioavailability [13, 33]: 100%
half-life [13, 33]: 230 min
Tmax [13, 33]: 0 h
Cmax [13, 34]: 33000 ng/mL
bioavailability [13, 34]: 100%
half-life [13, 34]: 463 min
Tmax [13, 34]: 2 h
IC50 [14]: > 5 µM
IC50 [15]: < 5 µM
Remaining (NCF = 60 min) [16]: 97.6%
IC50 [17]: > 5 µM
IC50 [18]: < 5 µM
half-life [25]: 23.1 min
